Data published in patent US20080280824A1, “COMPOSITIONS AND METHODS FOR TREATMENT OF CANCER OR NEURODEGENERATIVE DISEASE WITH PEPTIDE BASED MICROTUBULE STABILIZERS OR INHIBITORS” (University of Washington, priority 2007, published 2008).

B1: αAβ8: human αB crystallin mutant, β8 sequence 131LTITSSLS138 replaced with homologous β8 sequence of human αA crystallin (protein)
chain: MDIAIHHPWIRRPFFPFHSPSRLFDQFFGEHLLESDLFPTSTSLSPFYLRPPSFLRAPSWFDTGLSEMRLEKDRFSVNLDVKHFSPEELKVKVLGDVIEVHGKHEERQDEHGFISREFHRKYRIPADVDPSALSCSLSSDGVLTVNGPRKQVSGPERTIPITREEKPAVTAAPKK

Columns and labels:
βH crystallin = assay: In vitro chaperone assay, thermal aggregation of βH crystallin; format: biochemical
alcohol dehydrogenase = assay: In vitro chaperone assay, thermal aggregation of alcohol dehydrogenase; format: biochemical
citrate synthase = assay: In vitro chaperone assay, thermal aggregation of citrate synthase; format: biochemical
Bovine brain tubulin [1] = assay: Tubulin thermal aggregation assay (absorbance at 340 nm); format: biochemical
Experimental: Tubulin aggregation assays. The effect of αB crystallin peptides and mutants on the thermal aggregation of tubulin was evaluated using ultra-violet spectroscopy. Bovine brain tubulin was dissolved to 200 μM in 80 mM PIPES, 2 mM MgCl2, 0.5 mM EGTA, pH 6.9. 4.25 μl of 0.08, 0.4, or 2 mM test peptide or protein was diluted into 40 μl of 80 mM PIPES, 2 mM MgCl2, 0.5 mM EGTA, pH 6.9. 8.5 μl of the 200 μM tubulin was added to each sample. Samples were heated at 52° C. and the absorbance at λ=340 nm was measured continuously for 60 minutes using a Pharmacia Biotech Ultrospec 3000. GTP and glycerol were not present in the samples because they induce the assembly of microtubules.

Bovine brain tubulin [2] = biological target: T1, Bovine brain tubulin (Bos taurus, UniProt P81947+Q6B856); assay: Microtubule assembly assay (DAPI fluorescence, Microtubule Stabilization/Destabilization Assay kit); format: biochemical
T1 construct: Bovine brain tubulin was dissolved to 200 μM; purchased Cytoskeleton; Denver, Colo; host or cells: bovine brain
T1 sequence (P81947 whole entry): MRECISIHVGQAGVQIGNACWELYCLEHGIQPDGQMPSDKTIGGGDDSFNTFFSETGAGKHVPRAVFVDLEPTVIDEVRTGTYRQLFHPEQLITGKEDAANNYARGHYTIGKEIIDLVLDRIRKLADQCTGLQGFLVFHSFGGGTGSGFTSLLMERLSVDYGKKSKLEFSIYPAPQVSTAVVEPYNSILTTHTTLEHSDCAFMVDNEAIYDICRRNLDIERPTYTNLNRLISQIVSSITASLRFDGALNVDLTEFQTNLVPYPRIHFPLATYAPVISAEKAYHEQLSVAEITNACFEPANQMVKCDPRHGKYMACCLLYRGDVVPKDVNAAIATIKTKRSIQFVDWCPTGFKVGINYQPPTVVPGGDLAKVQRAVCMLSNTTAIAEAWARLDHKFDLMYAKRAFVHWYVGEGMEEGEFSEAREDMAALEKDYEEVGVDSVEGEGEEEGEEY
T1 sequence (Q6B856 whole entry): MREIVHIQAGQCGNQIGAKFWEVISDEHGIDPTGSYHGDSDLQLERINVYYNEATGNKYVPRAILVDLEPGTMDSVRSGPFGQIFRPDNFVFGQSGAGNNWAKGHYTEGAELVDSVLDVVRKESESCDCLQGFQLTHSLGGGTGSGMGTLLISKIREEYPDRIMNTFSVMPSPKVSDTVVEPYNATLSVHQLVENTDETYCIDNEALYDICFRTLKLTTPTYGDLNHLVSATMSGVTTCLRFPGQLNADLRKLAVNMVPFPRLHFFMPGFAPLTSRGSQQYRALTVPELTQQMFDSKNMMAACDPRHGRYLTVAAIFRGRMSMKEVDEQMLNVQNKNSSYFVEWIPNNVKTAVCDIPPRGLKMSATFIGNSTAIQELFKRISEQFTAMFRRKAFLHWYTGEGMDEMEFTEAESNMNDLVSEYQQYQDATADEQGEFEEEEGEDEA
Experimental: Microtubule assembly assays. The effect of selected αB crystallin peptides on the in vitro assembly of tubulin into microtubules was evaluated using the Microtubule Stabilization/Destabilization Assay kit (Cytoskeleton; Denver, Colo.) as described previously. Bonne et al., J Biol Chem 260:2819-25, 1985. Bovine brain tubulin was dissolved to 200 μM in 80 mM PIPES, 2 mM MgCl2, 0.5 mM EGTA, 10 μM DAPI, 1 mM GTP pH 6.9. 8.5 μl of the tubulin was mixed with 40 μl of 80 mM PIPES, 2 mM MgCl2, 0.5 mM EGTA, 7.4 μM DAPI, 16% Glycerol, 1.1 mM GTP pH 6.9 and 4.3 μl of 2 mM peptide in 2.5% DMSO, 2 mM Paclitaxel (polymerization promoter) in 100% DMSO, 15 mM CaCl2 (polymerization inhibitor) in water, or 2.5% DMSO only. Microtubule assembly was monitored by measuring the fluorescence of DAPI, a molecule whose emission fluorescence at λ=460 is enhanced 8-fold when it is incorporated into assembled microtubules. Bonne et al., J Biol Chem 260:2819-25, 1985. Fluorescence of samples were continuously read on a Perkin Elmer Victor^3 V fluorescence plate reader (Excitation λ=355 nm, Emission λ=460 nm) at 37° C. for 45 minutes.
The effect of wt and three mutant αB crystallins, Δ41-58, αAβ8, and Δ155-165 on the in vitro assembly of tubulin into microtubules was evaluated using the Microtubule Stabilization/Destabilization Assay kit described above (Cytoskeleton; Denver, Colo.). Bovine brain tubulin was dissolved to 200 μM in 80 mM PIPES, 2 mM MgCl2, 0.5 mM EGTA, 10 μM DAPI, 1 mM GTP pH 6.9. 8.5 μl of the tubulin was mixed with 40 μl of 80 mM PIPES, 2 mM MgCl2, 0.5 mM EGTA, 7.4 μM DAPI, 16% Glycerol, 1.1 mM GTP pH 6.9 and 4.3 μl of 80 μM protein in 20 mM Tris-Cl, pH8.0 or Tris-Cl buffer only. Fluorescence of samples were continuously read on a Perkin Elmer Victor^3 V fluorescence plate reader (Excitation λ=355 nm, Emission λ=460 nm) at 37° C. for 45 minutes.

pre-formed microtubules = assay: Microtubule disassembly assay (DAPI fluorescence); format: biochemical, Bovine
Experimental: Microtubule disassembly assays. The effect of αB crystallin peptides and mutants on the in vitro disassembly of microtubules into soluble tubulin was evaluated using the Microtubule Stabilization/Destabilization Assay kit described above (Cytoskeleton; Denver, Colo.) as described previously^36. 34 μM pre-formed microtubules were incubated with the αB crystallin peptides (170 μM) or wt and mutant αB crystallins (6.8 μM and 34 μM) at 23° C. for 20 minutes. Incubation of microtubules at 23° C. results in the spontaneous disassembly of microtubules. The decrease in DAPI fluorescence at λ=460 nm was measured continuously for 20 minutes by exciting the samples at λ=355 nm using a Perkin Elmer Victor^3 V fluorescence plate reader.

Molecule	effect on thermal aggregation of βH crystallin (βH crystallin)	effect on thermal aggregation of alcohol dehydrogenase (alcohol dehydrogenase)	effect on thermal aggregation of citrate synthase (citrate synthase)	tubulin aggregation relative to wt αB crystallin (Bovine brain tubulin [1]; mutant αB crystallin, FIG. 4)	effect on tubulin aggregation, vs absence of αB crystallin (Bovine brain tubulin [1]; wt or mutant αB crystallin protein, 52° C., 60 minutes)	microtubule assembly relative to wt αB crystallin (Bovine brain tubulin [2]; mutant αB crystallin, FIG. 4)	effect on microtubule assembly, vs absence of αB crystallin (Bovine brain tubulin [2]; wt or mutant αB crystallin protein, tubulin alone normalized to 1.0)	microtubule disassembly relative to wt αB crystallin (pre-formed microtubules; mutant αB crystallin, FIG. 4)	effect on microtubule disassembly (words), vs absence of αB crystallin (pre-formed microtubules; wt or mutant αB crystallin (6.8 μM and 34 μM), 34 μM microtubules, 23° C., 20 minutes)
RTIPITRE	inhibited	inhibited	inhibited	–	–	–	–	–	–
LTITSSLSDGV	inhibited	inhibited	inhibited	–	–	–	–	–	–
B1	–	–	–	unchanged	decreased	increased	increased	decreased	completely inhibited
